Data as given in article PMC10804494 (BMC Complementary Medicine and Therapies, 2024).
In brackets after ≈: the same amount, converted by molar mass. Where a name gives a salt, the structure may show the parent alone. Read-outs that look alike come from different tables or passages of the source.

Assays:
[1] = system: highly pathogenic avian influenza A/chicken/Egypt/N12640A/2016 (H5N1); assay: microbe, parasite or virus in culture; format: cell-based, influenza A/H5N1 virus
influenza A/H1N1 = assay: Plaque reduction assay, A/H1N1; format: cell-based, influenza A/H1N1 virus; details: A/H1N1, MDCK, low non-toxic concentrations, Fig. 4
influenza A/H5N1 virus [2] = assay: microbe, parasite or virus in culture; format: cell-based; details: H5N1, MDCK, read-out: Viral inhibition percentage, Virucidal
influenza A/H5N1 virus [3] = assay: microbe, parasite or virus in culture; format: cell-based
influenza A/H5N1 = format: cell-based, influenza A/H5N1 virus
influenza A/H5N1 virus [4] = assay: microbe, parasite or virus in culture; format: cell-based; details: H5N1, MDCK, read-out: Viral inhibition percentage, Viral Replication
[5] = system: seasonal influenza A/Egypt/NRC098/2019(H1N1); assay: microbe, parasite or virus in culture; format: cell-based; details: H1N1, MDCK, 72 h
in vitro = details: dog
[6] = cited from earlier work
MDCK cells = details: dog
[7] = system: IAV (A/Puerto Rico/8/1934(H1N1)); details: A/Puerto Rico/8/1934(H1N1) in mice; cited from earlier work
[8] = Influenza A virus, H5N1, MDCK, 72 h
[9] = Influenza A virus, H5N1, MDCK, read-out: Viral inhibition percentage, Viral Adsorption

For CN1C2CC(OC(=O)C(CO)c3ccccc3)CC1C1OC12 (single isomer, unassigned; (-)) [(-)Scopolamine HCl], the IC50 [1, 8] was 360 µg/mL.

With CN1C2CCC1CC(OC(=O)C(CO)c1ccccc1)C2 (stereo not shown) [Atropine sulphate] the “reduction of viral titers (in words)” value (influenza A/H1N1) was “high capacity to reduce viral titers”, the inhibition at 1 µg/mL (influenza A/H5N1 virus [2]) was 90.5% and the inhibition at 10 µg/mL (influenza A/H5N1 virus [2]) was 97.6%. For the same compound, the inhibition at 100 µg/mL (influenza A/H5N1 virus [2]) was 100%, the inhibition at 1 µg/mL (influenza A/H5N1 virus [3]; [9]) was 36.2% and the inhibition at 10 µg/mL (influenza A/H5N1 virus [3]; [9]) was 45.2%. For the same compound, the inhibition at 100 µg/mL (influenza A/H5N1 virus [3]; [9]) was 52.4%, the “reduction of viral titers (in words)” value (influenza A/H5N1) was “high capacity to reduce viral titers” and the inhibition at 1 µg/mL (influenza A/H5N1 virus [4]) was 32.8%. It also gave an inhibition at 10 µg/mL (influenza A/H5N1 virus [4]) of 41.2%, an inhibition at 100 µg/mL (influenza A/H5N1 virus [4]) of 52.9% and an IC50 [5] of 0.204 µg/mL. It also gave an IC50 [1, 8] of 2.26 µg/mL.

With Cn1c(=O)c2c(ncn2C)n(C)c1=O [Caffeine] the CC50 (in vitro) was over 10000 µg/mL and the IC50 [1, 8] was 85.7 µg/mL (≈ 441 µM).

For COc1cc2c(c(OC)c1OC)-c1ccc(OC)c(=O)cc1[C@@H](NC(C)=O)CC2 [Colchicine, (S)-N-(1,2,3,10-tetramethoxy-9-oxo-5,6,7,9-tetrahydrobenzo[a]heptalen-7-yl)acetamide], the CC50 (in vitro) was 2380 µg/mL (≈ 5960 µM), the “reduction of viral titers (in words)” value (influenza A/H1N1) was “high capacity to reduce viral titers” and the inhibition at 1 µg/mL (influenza A/H5N1 virus [2]) was 25%. The inhibition at 10 µg/mL (influenza A/H5N1 virus [2]) was 38%, the inhibition at 100 µg/mL (influenza A/H5N1 virus [2]) was 47.1% and the toxic range [6] was 0.6 mg. For the same compound, the “Viral inhibition percentage, Viral Adsorption” value (influenza A/H5N1 virus [3]) was 73.05%, the inhibition at 1 µg/mL (influenza A/H5N1 virus [3]; [9]) was 55% and the inhibition at 10 µg/mL (influenza A/H5N1 virus [3]; [9]) was 64.1%. The inhibition at 100 µg/mL (influenza A/H5N1 virus [3]; [9]) was 73%, the “reduction of viral titers (in words)” value (influenza A/H5N1) was “high capacity to reduce viral titers” and the CC50 (MDCK cells) was 3370 µg/mL (≈ 8440 µM). It also gave an inhibition at 1 µg/mL (influenza A/H5N1 virus [4]) of 85.7%, an inhibition at 10 µg/mL (influenza A/H5N1 virus [4]) of 87% and an inhibition at 100 µg/mL (influenza A/H5N1 virus [4]) of 91.1%.

CN[C@@H](C)[C@H](O)c1ccccc1 [Ephedrine HCl] showed a CC50 (in vitro) of over 10000 µg/mL, an IC50 [1] of 186 µg/mL and an IC50 [1, 8] of 186 µg/mL.

With COc1ccc(Cc2nccc3cc(OC)c(OC)cc23)cc1OC [Papaverine HCl] the CC50 (in vitro) was 274 µg/mL and the “anti-influenza activity against A/H5N1 virus (in words)” value [1] was “poor anti-influenza activity”.

For CC[C@@H]1C(=O)OC[C@@H]1Cc1cncn1C [Pilocarpine HCl], the CC50 (in vitro) was 3320 µg/mL, the “reduction of viral titers (in words)” value (influenza A/H1N1) was “high capacity to reduce viral titers” and the inhibition at 10 µg/mL (influenza A/H5N1 virus [2]) was 94.9%. It also gave an inhibition at 100 µg/mL (influenza A/H5N1 virus [2]) of 99.1%, an inhibition at 1000 µg/mL (influenza A/H5N1 virus [2]) of 100% and an inhibition at 10 µg/mL (influenza A/H5N1 virus [3]; [9]) of 37.8%. The inhibition at 100 µg/mL (influenza A/H5N1 virus [3]; [9]) was 44.6%, the inhibition at 1000 µg/mL (influenza A/H5N1 virus [3]; [9]) was 56.9% and the “reduction of viral titers (in words)” value (influenza A/H5N1) was “high capacity to reduce viral titers”. The inhibition at 10 µg/mL (influenza A/H5N1 virus [4]) was 35.3%, the inhibition at 100 µg/mL (influenza A/H5N1 virus [4]) was 46.9% and the inhibition at 1000 µg/mL (influenza A/H5N1 virus [4]) was 53.1%. For the same compound, the IC50 [5] was 0.637 µg/mL and the IC50 [1, 8] was 0.21 µg/mL.

C=C[C@H]1C[N@@]2CC[C@H]1C[C@@H]2[C@@H](O)c1ccnc2ccc(OC)cc12 [Quinidine Sulphate, Quinidine sulphate] gave a CC50 (in vitro) of over 10000 µg/mL.

In the case of C=C[C@H]1C[N@@]2CC[C@H]1C[C@H]2[C@H](O)c1ccnc2ccc(OC)cc12 [Quinine sulphate], the CC50 (in vitro) is given as over 10000 µg/mL, the “antiviral effect in mice (in words)” value [7] is given as “exert an antiviral effect” and the “anti-influenza activity against A/H5N1 virus (in words)” value [1] is given as “no anti-influenza activity”.

With C[n+]1cccc(C(=O)[O-])c1 [Trigonelline HCl] the CC50 (in vitro) was over 10000 µg/mL.

Compound CC(=O)N[C@H]1[C@H]([C@H](O)[C@H](O)CO)OC(C(=O)O)=C[C@@H]1N=C(N)N [Zanamivir] has a CC50 (in vitro) of over 10000 µg/mL, an IC50 [5] of 0.265 µg/mL (≈ 0.797 µM) and an IC50 [1, 8] of 0.358 µg/mL (≈ 1.08 µM).
